For the assay, the system named is Staphylococcus aureus. The assay can be described thus: Antimicrobial activity against staphylococcus aureus 209P JC-1 incubated for 20 hrs by agar dilution method. In kind it is functional.

Values after ≈ are worked out from the molar mass of the structure shown.

What is called MIC is the smallest concentration in the dilution series that meets the test's criterion for growth inhibition. Low values mean inhibition by little substance, high ones a need for much substance. In the case of `CC1=CC(=O)C[C@@H](C)[C@@]1(C)CC/C(C)=C/CCC1=CC[C@H](C2=CC(=O)OC2)OC1`, the MIC worked out at 51 µg/mL (≈ 128 µM).
